# Experimental data as given in patent US9416136B2, “Pyrrolopyrimidine compounds and their uses” (Novartis AG, priority 2008, dated 2016).
# Key:
# [1] = system: pRb negative cells; assay: cell proliferation of pRb negative cells; type: cell-based; conditions: high concentrations
# From the text: (§1) Moreover, the inhibitory effects of the CDK4 inhibitor are absolutely dependent upon the presence of the Retinoblastoma protein (pRb). Activities in pRb negative cells for candidate CDK4 inhibitors indicate that the compounds have off-target activities and not as selective.
# [2] = system: cell cycle; assay: cell cycle analysis; type: cell-based; conditions: concentrations of 1 and 10 uM
# From the text: as §1
compound,measurement,setting,value
CN(C)C(=O)c1cc2cnc(Nc3ccc(N4CCNCC4)cc3)nc2n1C1CCCC1 [Example 200],inhibition of cell proliferation of pRb negative cells,[1],does inhibit the cell proliferation of pRb negative cells at high concentrations
same,cell cycle arrest phase,[2],starts to induce G2/M phase blocks
